Test: Pre-test: latanoprost dissolved in the 0.15% hylan A vehicle, HPLC
Type: physicochemical
Conditions: 0.15% w/v hylan A vehicle, stirred 18 hours at 40° C., 25 or 50 μg/ml added
Method: Sterile bulk solution for the production of COMFORT SHIELD® MDS eye drops (i.com medical GmbH, Munich, Germany) was used as vehicle for the preparation of prototype latanoprost bulk solution (PLBS). The vehicle contained 0.15% w/v hylan A (HA with 2.9 m^3/kg intrinsic viscosity) dissolved in phosphate buffered saline solution (8.035 g/l NaCl; 1.2 mmol/1 Na2HPO4/NaH2PO4; pH 7.4). Latanoprost was obtained from Yonsung Fine Chemicals Co. Ltd., Gyeonggi-do, Republic of Korea. PLBS was prepared by medi-pharm Laboratorium GmbH, Falkensee, Germany by dissolving 20±1 μg/ml latanoprost in the vehicle.
In a pre-test 25 μg/ml and 50 μg/ml latanoprost were added to the vehicle and the solution stirred for 18 hours at 40° C. The latanoprost content was determined by HPLC using a Hypersil BDS C18 5 μg, 150.0×4.0 mm column (VDS optilab) and a UV detector (200 nm).

Q: For `CC(C)OC(=O)CCC/C=C\C[C@@H]1[C@@H](CC[C@@H](O)CCc2ccccc2)[C@H](O)C[C@@H]1O` [latanoprost, Latanoprost], which “latanoprost found to be dissolved in the vehicle” value is on record?
A: 20.8 µg/mL

Source: patent US20230338541A1, “USE OF HIGH MOLECULAR WEIGHT HYALURONIC ACID AS OCULAR TRANSPORTING VEHICLE” (I.COM MEDICAL GMBH, priority 2020, published 2023)
